# Data from patent US20140271474A1, “INHIBITOR PROBES FOR IMAGING SODIUM-GLUCOSE COTRANSPORTERS IN HEALTH AND DISEASE” (THE REGENTS OF THE UNIVERSITY OF CALIFORNIA, priority 2011, published 2014).
# Legend:
# [1] = test system: SGLT2 over SGLT1; conditions: cited from earlier work
# [2] = cited from earlier work
# [3] = test system: SGLTs; conditions: cited from earlier work
# [4] = biological target: SGLT2 (Homo sapiens, UniProt P31639); conditions: read-out: Ki for SGLT2
# Source text: A method of making radiolabeled inhibitors pyranosides is also provided.
# [5] = biological target: T1, SGLT2 (Rattus norvegicus, UniProt P53792)
# T1 sequence (P53792 1-670): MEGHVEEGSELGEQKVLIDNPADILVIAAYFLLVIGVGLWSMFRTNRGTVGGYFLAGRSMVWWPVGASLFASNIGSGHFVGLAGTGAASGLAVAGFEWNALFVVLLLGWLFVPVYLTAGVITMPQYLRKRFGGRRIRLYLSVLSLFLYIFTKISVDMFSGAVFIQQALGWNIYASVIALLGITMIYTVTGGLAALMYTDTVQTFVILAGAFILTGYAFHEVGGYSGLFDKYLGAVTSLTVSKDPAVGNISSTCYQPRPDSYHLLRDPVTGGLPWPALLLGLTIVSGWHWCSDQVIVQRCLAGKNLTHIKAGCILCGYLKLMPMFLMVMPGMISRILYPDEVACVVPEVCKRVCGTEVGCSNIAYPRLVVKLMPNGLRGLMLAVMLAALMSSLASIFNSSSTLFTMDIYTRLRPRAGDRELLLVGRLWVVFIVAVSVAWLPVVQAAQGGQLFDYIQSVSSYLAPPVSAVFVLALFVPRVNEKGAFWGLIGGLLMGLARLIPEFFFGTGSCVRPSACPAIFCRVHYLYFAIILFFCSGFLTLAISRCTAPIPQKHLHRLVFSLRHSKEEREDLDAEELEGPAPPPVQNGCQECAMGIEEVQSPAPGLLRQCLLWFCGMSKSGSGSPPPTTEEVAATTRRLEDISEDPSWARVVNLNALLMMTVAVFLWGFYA
# [6] = cited from earlier work; remark: listed apart in the source
# [7] = test system: GLUTs; conditions: cited from earlier work
# [8] = biological target: T2, SGLT1 (Homo sapiens, UniProt P13866); conditions: specific, non-metabolized substrate; cited from earlier work
# T2 sequence (P13866 1-664): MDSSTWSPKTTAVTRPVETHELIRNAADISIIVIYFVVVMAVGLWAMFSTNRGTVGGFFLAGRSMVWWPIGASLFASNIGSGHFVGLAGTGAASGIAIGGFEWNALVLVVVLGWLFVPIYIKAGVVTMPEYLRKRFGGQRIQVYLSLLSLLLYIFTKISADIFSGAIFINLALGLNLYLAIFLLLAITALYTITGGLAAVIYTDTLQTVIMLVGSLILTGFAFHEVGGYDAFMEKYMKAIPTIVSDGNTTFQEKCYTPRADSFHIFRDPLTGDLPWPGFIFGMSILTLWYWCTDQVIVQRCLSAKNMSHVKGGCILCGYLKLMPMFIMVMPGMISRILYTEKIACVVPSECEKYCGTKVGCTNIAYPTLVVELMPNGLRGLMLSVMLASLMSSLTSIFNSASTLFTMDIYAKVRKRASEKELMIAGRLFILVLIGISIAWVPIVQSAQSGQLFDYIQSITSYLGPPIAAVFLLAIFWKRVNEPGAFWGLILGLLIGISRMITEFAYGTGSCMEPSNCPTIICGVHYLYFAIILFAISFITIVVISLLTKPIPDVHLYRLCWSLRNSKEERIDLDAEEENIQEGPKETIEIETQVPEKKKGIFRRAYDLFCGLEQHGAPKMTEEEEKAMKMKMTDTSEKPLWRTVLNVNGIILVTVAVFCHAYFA
# [9] = for 1-25 hours after oral administration of dapagliflozin; cited from earlier work
# [10] = major metabolite of dapagliflozin; cited from earlier work
# [11] = images summed 50-60 minutes post injection
# [12] = type 2 diabetic patients, tested doses
# SGLT2 (Homo sapiens, UniProt P31639), sequence (P31639 whole entry): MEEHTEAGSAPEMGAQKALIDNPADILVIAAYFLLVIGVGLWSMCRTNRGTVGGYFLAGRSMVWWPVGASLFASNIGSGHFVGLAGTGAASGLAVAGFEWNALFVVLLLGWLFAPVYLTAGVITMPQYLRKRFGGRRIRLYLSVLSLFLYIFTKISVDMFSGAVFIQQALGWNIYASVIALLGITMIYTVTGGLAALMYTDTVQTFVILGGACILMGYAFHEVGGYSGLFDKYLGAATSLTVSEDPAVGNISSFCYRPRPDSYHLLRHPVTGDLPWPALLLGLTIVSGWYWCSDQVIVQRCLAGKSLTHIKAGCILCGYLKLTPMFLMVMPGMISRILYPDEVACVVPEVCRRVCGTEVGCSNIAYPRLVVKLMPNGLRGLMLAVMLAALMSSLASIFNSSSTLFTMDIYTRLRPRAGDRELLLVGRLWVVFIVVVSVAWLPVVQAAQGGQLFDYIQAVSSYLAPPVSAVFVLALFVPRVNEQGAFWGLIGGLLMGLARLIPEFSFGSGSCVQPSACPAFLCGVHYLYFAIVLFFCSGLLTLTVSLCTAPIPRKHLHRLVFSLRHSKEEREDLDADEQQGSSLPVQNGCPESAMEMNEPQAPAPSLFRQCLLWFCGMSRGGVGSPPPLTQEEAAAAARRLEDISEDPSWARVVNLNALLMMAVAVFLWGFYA
smiles,measurement,setting,value
COC(=O)OC[C@H]1O[C@@H](Oc2cc(C)cc(O)c2C(=O)CCc2ccc3occc3c2)[C@H](O)[C@@H](O)[C@@H]1O [T-1095],selectivity among SGLTs (in words),[1],nonselective
same,blood glucose levels,[2]; diabetic animals,lowered blood glucose levels
same,renal glucose excretion,[2]; diabetic animals,resulted in renal glucose excretion
same,hyperinsulinemia and hypertriglyceridemia,[2]; diabetic rodents,reduced hyperinsulinemia and hypertriglyceridemia
same,post-prandial hyperglycemia,[2]; diabetic rodents,suppressed post-prandial hyperglycemia
same,absorption of the pro-drug,[2]; oral,absorbed from the gut into the circulation
O=CC[C@@H](O)[C@H](O)[C@H](O)CO [2-deoxy-D-glucose],substrate for SGLTs,[3],poor substrates
O=C[C@@H](O)[C@@H](O)[C@H](O)[C@H](O)CO [mannose],substrate for SGLTs,[3],poor substrates
"CCOc1ccc(Cc2cc([C@@H]3O[C@H](CO)[C@@H](F)[C@H](O)[C@H]3O)ccc2Cl)cc1 [[18F]-dapagliflozin, (1S)-1,5-anhydro-1-C-{4-chloro-3-[(4-ethoxyphenyl)methyl]phenyl}-4-[18F]-4-deoxy-D-glucitol]",Ki,[4],1 to 5 nM
"CCOc1ccc(Cc2cc([C@@H]3O[C@H](CO)[C@@H]([18F])[C@H](O)[C@H]3O)ccc2Cl)cc1 [[18F]-dapagliflozin, (1S)-1,5-anhydro-1-C-{4-chloro-3-[(4-ethoxyphenyl)methyl]phenyl}-4-[18F]-4-deoxy-D-glucitol]",tracer binding site in microPET image,[5]; [11],binding to the outer cortex of the kidney
same,18F-activity in the intestine,[5]; with pre-injection of dapagliflozin or phlorizin,excretion by the liver into bile
O=C(CCc1ccc(O)cc1)c1c(O)cc(O)cc1O[C@@H]1O[C@H](CO)[C@@H](O)[C@H](O)[C@H]1O [Phlorizin],[18F]-dapagliflozin binding to the kidney cortex after pre-injection of the substance,[5]; [11],completely blocked
Cc1cc(OCCCNCC(C)(C)C(N)=O)ccc1Cc1c(O[C@@H]2O[C@H](CO)[C@@H](O)[C@H](O)[C@H]2O)n[nH]c1C(C)C [DSP-3235],selectivity among SGLTs (in words),[1],targets SGLT1
"O=C[C@H]([18F])[C@@H](O)[C@H](O)[C@H](O)CO [2-FDG, 2-deoxy-2-[18F]fluoro-D-glucose]",substrate for SGLTs,[3],not a substrate
CCOc1ccc(Cc2cc([C@@H]3O[C@H](CO)[C@@H](O)[C@H](O)[C@H]3O)ccc2Cl)cc1 [dapagliflozin],weight loss,[6]; over 28-58 weeks,up to 3.5 Kg
same,reduction in fasting serum glucose,[6]; [12],22±10%
same,reduction in post-prandial glucose absorption (area under the plasma glucose concentration curve),[6]; [12],20±10%
same,sustained urinary glucose excretion,[6]; [12],30-65 gram/day
same,increase in hematocrit,[6]; type 2 diabetic patients,up to 3%
same,increase in urine volume,[6]; type 2 diabetic patients,up to 470 ml/day
same,loss of urinary glucose,[6]; type 2 diabetic patients,200 to 300 kcal/day
same,reduction in diastolic blood pressure,[6]; type 2 diabetic patients,2-5 mm Hg
same,[18F]-dapagliflozin binding to the kidney cortex after pre-injection of the substance,[5]; [11],completely blocked
CO[C@H]1O[C@H](CO)[C@@H](O)[C@H](O)[C@H]1O [alpha-methyl-D-glucopyranoside],substrate for GLUTs,[7],not a substrate
same,concentration reached in cells above plasma concentrations,[8],≤ 800 fold
CCOc1ccc(Cc2cc([C@@H]3O[C@H](CO)[C@@H](O)[C@H](O[C@@H]4O[C@H](C(=O)O)[C@@H](O)[C@H](O)[C@H]4O)[C@H]3O)ccc2Cl)cc1 [dapagliflozin 3-O-glucuronide],plasma level of the metabolite versus native drug,[9],higher than the native drug
same,activity of the metabolite,[10],inactive
Cc1c(Cc2ccc(OC(C)C)cc2)c(O[C@@H]2O[C@H](CO)[C@@H](O)[C@H](O)[C@H]2O)nn1C(C)C [remogliflozin],selectivity among SGLTs (in words),[1],markedly increased selectivity for SGLT2
